Test [1] deals with T1, human recombinant serotonin (5-Hydroxytryptamine) 5-HT2A receptor (Homo sapiens, UniProt P28223).
T1 construct: expressed in transfected cells; host or cells: CHO-K1 cells
As to the kind of experiment: Serotonin 5-HT2A radioligand binding ([3H]Ketanserin). The conditions noted are these: compound at 1 μM; read-out: Serotonin (1 μM) 5-HT2A, percent inhibition of specific binding. In outline: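 Percent inhibition of specific [3H]ketanserin (0.5 nM) binding, filtration read-out, with compounds at ≤1 μM (1% DMSO vehicle). Receptor source: recombinant human 5-HT2A in CHO-K1 cells, 50 mM Tris-HCl pH 7.4, 60 min, 25 °C; 1 μM mianserin gives nonspecific binding.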

Test [2] addresses T2, human recombinant adrenergic α2A receptor (Homo sapiens, UniProt P08913).
T2 construct: expressed in transfected cells; host or cells: insect Sf9 cells
T2 sequence (P08913 1-465): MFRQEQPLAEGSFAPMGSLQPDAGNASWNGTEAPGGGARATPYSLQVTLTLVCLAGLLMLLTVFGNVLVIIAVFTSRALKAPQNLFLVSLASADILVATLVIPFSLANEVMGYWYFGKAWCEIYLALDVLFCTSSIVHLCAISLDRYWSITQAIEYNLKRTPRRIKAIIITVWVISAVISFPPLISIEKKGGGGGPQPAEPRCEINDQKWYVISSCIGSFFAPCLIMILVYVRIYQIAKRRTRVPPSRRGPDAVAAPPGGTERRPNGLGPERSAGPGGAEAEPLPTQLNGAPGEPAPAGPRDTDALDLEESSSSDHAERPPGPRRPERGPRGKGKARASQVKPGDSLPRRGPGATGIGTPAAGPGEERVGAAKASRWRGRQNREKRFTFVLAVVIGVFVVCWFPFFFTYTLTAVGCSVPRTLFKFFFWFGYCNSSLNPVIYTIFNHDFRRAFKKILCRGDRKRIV
Briefly: Adrenergic alpha2A radioligand binding ([3H]MK-912). As to conditions: compound at 1 μM; read-out: Adrenergic (1 μM) α2A, percent inhibition of specific binding. How it is done:
To evaluate in radioligand binding assays the activity of compounds of the invention, human recombinant adrenergic α2A receptor expressed in insect Sf9 cells (Uhlen S et al. J Pharmacol Exp Ther. 271:1558, 1994) in a modified Tris-HCl buffer (50 mM Tris-HCl, pH 7.4, 12.5 mM MgCl2, 2 mM EDTA) was used. Compounds of invention were incubated with 1 nM [^3H]MK-912 for 60 min. at 25° C. MK912 is (2S-trans)-1,3,4,5′,6,6′,7,12b-octahydro-1′,3′-dimethyl-spiro[2 h-benzofuro [2,3-a]quinolizine-2,4′ (1′H)-pyrimidin]-2′ (3′H)-one hydrochloride Non-specific binding was estimated in the presence of 10 μM WB-4101 (2-(2,6-Dimethoxyphenoxyethyl)aminomethyl-1,4-benzodioxane hydrochloride). Receptor proteins were filtered and washed, the filters were then counted to determine [^3H]MK-912 specifically bound. Compounds were screened at 1 μM or lower, using 1% DMSO as vehicle. Biochemical assay results are presented as the percent inhibition of specific binding in Table 5.

Test [3] has as its target T3, human recombinant histamine H2 receptor (Homo sapiens, UniProt P25021).
T3 construct: expressed in transfected cells; host or cells: CHO-K1 cells
As to the kind of experiment: Histamine H2 radioligand binding ([125I]Aminopotentidine). The conditions noted are these: compound at 1 μM; read-out: Histamine Binding (1 μM) H2, percent inhibition of specific binding. In short, it runs like this: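 Membranes from CHO-K1 cells expressing recombinant human H2 receptor, in 50 mM phosphate buffer pH 7.4, incubated with 0.1 nM [125I]aminopotentidine for 120 min at 25 °C; nonspecific binding defined with 3 μM tiotidine.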

In test [4] the target is T4, human recombinant dopamine D2L receptor (Homo sapiens, UniProt P14416).
T4 construct: expressed in transfected cells; host or cells: CHO cells
T4 sequence (P14416 whole entry): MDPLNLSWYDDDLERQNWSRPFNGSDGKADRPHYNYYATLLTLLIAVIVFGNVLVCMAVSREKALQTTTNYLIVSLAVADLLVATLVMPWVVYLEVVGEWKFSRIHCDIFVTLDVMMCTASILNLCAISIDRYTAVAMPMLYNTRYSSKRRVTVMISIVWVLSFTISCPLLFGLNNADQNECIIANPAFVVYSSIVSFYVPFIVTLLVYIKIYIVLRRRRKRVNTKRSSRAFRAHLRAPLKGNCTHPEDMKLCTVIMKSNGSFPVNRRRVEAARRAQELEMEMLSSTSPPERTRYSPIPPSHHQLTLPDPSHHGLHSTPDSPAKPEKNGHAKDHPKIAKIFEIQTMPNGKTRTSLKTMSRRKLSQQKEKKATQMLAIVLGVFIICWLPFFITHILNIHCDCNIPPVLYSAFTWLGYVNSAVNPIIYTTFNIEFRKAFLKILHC
As to the kind of experiment: Dopamine D2L radioligand binding ([3H]Spiperone). The conditions noted are these: compound at 1 μM; read-out: Dopamine (1 μM) D2L, percent inhibition of specific binding. In short, it runs like this: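 Human recombinant D2L receptor from CHO cells, in Tris-HCl buffer pH 7.4 with ascorbic acid, BSA and 150 mM NaCl; compounds at 1 μM or lower (1% DMSO) incubated with 0.16 nM [3H]spiperone, 120 min, 25° C. Nonspecific binding by 10 μM haloperidol; filter counting; % inhibition of specific binding.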

T3 sequence (P25021 whole entry): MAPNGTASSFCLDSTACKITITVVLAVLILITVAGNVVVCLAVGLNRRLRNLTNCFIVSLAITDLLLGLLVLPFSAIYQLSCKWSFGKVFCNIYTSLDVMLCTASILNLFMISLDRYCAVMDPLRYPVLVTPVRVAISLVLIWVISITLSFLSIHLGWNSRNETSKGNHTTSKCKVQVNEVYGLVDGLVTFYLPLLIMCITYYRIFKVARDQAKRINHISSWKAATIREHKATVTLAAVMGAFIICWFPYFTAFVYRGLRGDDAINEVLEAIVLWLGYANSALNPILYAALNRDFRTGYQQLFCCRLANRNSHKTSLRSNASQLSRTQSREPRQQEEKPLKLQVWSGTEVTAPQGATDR
T1 sequence (P28223 whole entry): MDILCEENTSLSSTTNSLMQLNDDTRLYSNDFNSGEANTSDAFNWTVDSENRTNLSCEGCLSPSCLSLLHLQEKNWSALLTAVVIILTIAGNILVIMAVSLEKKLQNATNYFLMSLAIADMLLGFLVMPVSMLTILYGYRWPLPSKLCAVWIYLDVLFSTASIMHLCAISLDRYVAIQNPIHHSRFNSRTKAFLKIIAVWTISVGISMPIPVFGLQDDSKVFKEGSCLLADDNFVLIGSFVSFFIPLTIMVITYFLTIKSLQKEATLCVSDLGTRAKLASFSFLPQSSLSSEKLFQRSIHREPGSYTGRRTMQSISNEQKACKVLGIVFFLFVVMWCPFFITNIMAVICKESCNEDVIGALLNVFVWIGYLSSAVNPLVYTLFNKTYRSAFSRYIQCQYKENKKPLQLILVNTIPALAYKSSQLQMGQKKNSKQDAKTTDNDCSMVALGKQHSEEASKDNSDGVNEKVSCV

For the compound `Cc1ccc2c(c1)c1c(n2CCc2cncc(Cl)c2)CCN(C)CC1` [Compound No. 4, 6-(2-(5-chloropyridin-3-yl)ethyl)-1,2,3,4,5,6-hexahydro-3,9-dimethylazepino[4,5-b]indole], the inhibition at 1 µM in test [1] came to 93%; in test [2], 85%; in test [3] it was 59%; in test [4], 2%.

With `CN1CCc2c(n(CC(=O)N3CCNCC3)c3ccc(Cl)cc23)CC1` [Compound No. 72, 2-(9-chloro-2,3,4,5-tetrahydro-3-methylazepino[4,5-b]indol-6(1H)-yl)-1-(piperazin-1-yl)ethanone], the inhibition at 1 µM in test [1] was 23%; in test [2], -6%; in test [3] it was 0%; in test [4] it was -18%.

For the compound `CN1CCc2c(n(CC(O)c3ccccc3F)c3ccc(Cl)cc23)CC1` (stereo not drawn) [Compound No. 40, 2-(9-chloro-2,3,4,5-tetrahydro-3-methylazepino[4,5-b]indol-6(1H)-yl)-1-(2-fluorophenyl)ethanol], the inhibition at 1 µM in test [1] came out at 97%; in test [2], 96%; in test [3] it was 61%; in test [4], 46%.

On to `CN1CCc2c(n(CC(=O)N(C)C3CCCCC3)c3ccc(Cl)cc23)CC1` [Compound No. 74, 2-(9-chloro-2,3,4,5-tetrahydro-3-methylazepino[4,5-b]indol-6(1H)-yl)-N-cyclohexyl-N-methylacetamide], for which the inhibition at 1 µM in test [1] was 27%; in test [2] it was 19%; in test [3], 9%; in test [4] it was -2%.

On to `C/C(=C\n1c2c(c3cc(Cl)ccc31)CCN(C)CC2)c1ccc(Cl)cc1` [Compound No. 36, 9-chloro-6-((E)-2-(4-chlorophenyl)prop-1-enyl)-1,2,3,4,5,6-hexahydro-3-methylazepino[4,5-b]indole], for which the inhibition at 1 µM was 97% in test [1], 96% in test [2], 104% in test [3] and 34% in test [4].

On to `Cc1ccc2c(c1)c1c(n2CCc2ccncc2)CCN(C)CC1` [Compound No. 6, 1,2,3,4,5,6-hexahydro-3,9-dimethyl-6-(2-(pyridin-4-yl)ethyl)azepino[4,5-b]indole], for which the inhibition at 1 µM worked out at 96% in test [1], 93% in test [2], 52% in test [3] and 30% in test [4].

Consider `CC(C)NC(=O)Cn1c2c(c3cc(Cl)ccc31)CCN(C)CC2` [Compound No. 31, 2-(9-chloro-2,3,4,5-tetrahydro-3-methylazepino[4,5-b]indol-6(1H)-yl)-N-isopropylacetamide], for which the inhibition at 1 µM in test [1] was 43%; in test [2] it was 31%; in test [3], -10%; in test [4] it was 4%.

As for `Cc1ccc2c(c1)c1c(n2CC(O)c2ccc(F)cc2F)CCN(C)CC1` (stereo not drawn) [Compound No. 59, 1-(2,4-difluorophenyl)-2-(2,3,4,5-tetrahydro-3,9-dimethylazepino[4,5-b]indol-6(1H)-yl)ethanol], the inhibition at 1 µM in test [1] stood at 93%; in test [2] it was 89%; in test [3] it was 37%; in test [4] it was 20%.

Regarding `CN1CCc2c(n(CC(=O)N3CCCCC3)c3ccc(Cl)cc23)CC1` [Compound No. 57, 2-(9-chloro-2,3,4,5-tetrahydro-3-methylazepino[4,5-b]indol-6(1H)-yl)-1-(piperidin-1-yl)ethanone], the inhibition at 1 µM in test [1] was 10%; in test [2] it was -1%; in test [3] it was 1%; in test [4], 10%.

Regarding `Cc1ccc2c(c1)c1c(n2/C=C/c2ccccc2F)CCN(C)CC1` [Compound No. 233, (E)-6-(2-fluorostyryl)-3,9-dimethyl-1,2,3,4,5,6-hexahydroazepino[4,5-b]indole], the inhibition at 1 µM in test [1] came to 102%; in test [2], 97%; in test [3], 94%; in test [4] it was 73%.

As to `COc1ccc(C(O)Cn2c3c(c4cc(C)ccc42)CCN(C)CC3)cc1F` (stereo not drawn) [Compound No. 68, 1-(3-fluoro-4-methoxyphenyl)-2-(2,3,4,5-tetrahydro-3,9-dimethylazepino[4,5-b]indol-6(1H)-yl)ethanol], the inhibition at 1 µM turned out to be 99% in test [1], 99% in test [2], 69% in test [3] and 40% in test [4].

On to `Cc1ccc2c(c1)c1c(n2CC(O)c2ccncc2)CCN(C)CC1` (stereo not drawn) [Compound No. 43, 2-(2,3,4,5-tetrahydro-3,9-dimethylazepino[4,5-b]indol-6(1H)-yl)-1-(pyridin-4-yl)ethanol], for which the inhibition at 1 µM in test [1] turned out to be 93%; in test [2] it was 78%; in test [3], 30%; in test [4] it was 4%.

`CN1CCc2c(n(CC(O)c3ccncc3)c3ccc(Cl)cc23)CC1` (stereo not drawn) [Compound No. 42, 2-(9-chloro-2,3,4,5-tetrahydro-3-methylazepino[4,5-b]indol-6(1H)-yl)-1-(pyridin-4-yl)ethanol]: the inhibition at 1 µM in test [1] is 95%; in test [2], 87%; in test [3], 45%; in test [4], 8%.

As to `CN1CCc2c(n(CCc3ccccc3F)c3ccccc23)CC1` [Compound No. 237, 6-(2-fluorophenethyl)-3-methyl-1,2,3,4,5,6-hexahydroazepino[4,5-b]indole], the inhibition at 1 µM in test [1] was determined as 99%; in test [2], 98%; in test [3] it was 81%; in test [4], 50%.

Take `Cc1ccc2c(c1)c1c(n2CC(O)c2ccccc2F)CCN(C)CC1` (stereo not drawn) [Compound No. 41, 1-(2-fluorophenyl)-2-(2,3,4,5-tetrahydro-3,9-dimethylazepino[4,5-b]indol-6(1H)-yl)ethanol]: the inhibition at 1 µM in test [1] amounted to 99%; in test [2], 95%; in test [3], 52%; in test [4], 34%.

As to `Cc1ccc2c(c1)c1c(n2CCc2ccc(Cl)cc2)CCN(C)CC1` [Compound No. 28, 6-(4-chlorophenethyl)-1,2,3,4,5,6-hexahydro-3,9-dimethylazepino[4,5-b]indole], the inhibition at 1 µM in test [1] was 100%; in test [2], 96%; in test [3] it was 97%; in test [4] it was 67%.

In the case of `CN1CCc2c(n(CCc3ccccc3F)c3ccc(Cl)cc23)CC1` [Compound No. 61, 6-(2-fluorophenethyl)-9-chloro-1,2,3,4,5,6-hexahydro-3-methylazepino[4,5-b]indole], the inhibition at 1 µM came out at 43% in test [1], 23% in test [2], 89% in test [3] and 1% in test [4].

As for `Cc1ccc2c(c1)c1c(n2CCc2ccccc2F)CCN(C)CC1` [Compound No. 63, 6-(2-fluorophenethyl)-1,2,3,4,5,6-hexahydro-3,9-dimethylazepino[4,5-b]indole], the inhibition at 1 µM in test [1] stood at 91%; in test [2], 96%; in test [3], 83%; in test [4] it was 61%.

For orientation: inhibition means the drop in the measured response relative to a control, in per cent.

The record behind these values is US9481676B2, “Azepino[4,5-B]indoles and methods of use” (Medivation Technologies, Inc., priority 2008, dated 2016).
